pIC50: −log10 of the molar value. Like-named read-outs stand apart in the source and are kept apart here.
What was measured:
SW1573 [1] = experiment: 2D combinational test (SRB growth inhibition, six days); details: Homo sapiens
Procedure: (§4) H358, SW1573, H1792, MIAPACA2, SW1990, SNUC2B, SW480, A549 and HCT116 were purchased from ATCC, while SW48 KRAS G12C colorectal cell line and H838 KRAS G12D lung cell line was bought from Horizon Discovery Ltd. Most of the cell lines were heterozygous for mutant KRAS, as in human cases used to occur, but we also used cell lines with homozygous mutant KRAS.
(§5) Cells were cultured in DMEM (Lonza, Switzerland; with 4500 mg/dm3 glucose, pyruvate and L-glutamine) supplemented with 10% fetal calf serum (EuroClone) and 1% penicillin-streptomycin-amphotericin (Lonza) in tissue culture flasks in a humidified 5% CO2 atmosphere at 37° C.
(§6) For in vitro experiments drugs were dissolved in DMSO in 10 mM stock concentration and stored at −80° C.
(§7) Cells that reached 70-80% confluency were trypsinized and counted using Luna II Automated Cell Counter. Cells were plated in 5000-10000 cells/well density (depending on the growth rate of the given cell line) on a 24 well plate. Next day the medium was replaced to fresh medium supplemented with the inhibitors. After 6 days, the wells were washed with DPBS (Lonza) and the cells were fixed by 10% trichloroacetic acid and stained with Sulphorodamine-B (SRB) (Sigma) dye for 15 minutes. Plates then were repeatedly washed with 1% acetic acid to remove excess dye. Protein-bound SRB was then dissolved in 10 mM Tris buffer (pH=7,4) and OD was measured at 570 nm using a microplate reader (EL800, BioTec Instruments, Winooski, VT). OD values were normalized to control. Transformed data then were used to calculate combinational index (CI) values using Compusyn software as described in https://www.combosyn.com/index.html. Data shown are results of three independent experiments.

PF97 = experiment: as above; details: Homo sapiens, 144 h
Procedure: as §4, §5, §6, §7

MIAPACA2 = experiment: as above; details: Homo sapiens, MIA PaCa-2, 144 h
SW1990 = experiment: as above; assay type: cell-based, human; details: Homo sapiens, SW1990, SW1990, read-out: Relative cell viability (MEAN)
Excerpt: (§1) OD values were normalized to control. […] Data shown are results of three independent experiments.

SW480 = experiment: as above; assay type: cell-based, human; details: Homo sapiens
Excerpt: as §1

cancer patients = details: patients, cited from earlier work
SW1573 [2] = experiment: siRNA knockdown experiment (SRB, IC50); assay type: cell-based, human; details: Homo sapiens, SW1573, 144 h, 6-day-long treatment
Procedure: Cells were plated in 2500 and 7500 cells/well density (for non-targeting siRNA and HRAS siRNA treatment, respectively) on a 48we11 plate supplemented with pre-mixed Lipofectamine RNAIMAX Reagent (Thermo Fisher) and OptiMEM (Thermo Fisher) containing 2.5 pmol/well non-targeting or HRAS siRNA according to the manufacturer's instruction (reverse transfection protocol). […] On the 3rd day of the treatment, cells were supplemented with fresh pre-mixed 2.5 pmol/well siRNA diluted in Lipofectamine RNAiMAX Reagent and Optimem according to the manufacturer's instruction. […] OD values were normalized to control, and IC50 values were calculated from transformed data using GraphPad PRISM 5 software.

H358 xenografts = experiment: In vivo tumor growth of subcutaneous xenografts; set-up: species or system female SCID mice; details: AMG510 5 mg/kg i.p. and/or tipifarnib 40 mg/kg i.p., (day 1 = 1)
Procedure: (§2) H358 and SW1573 human lung adenocarcinoma cells (5×10^6 and 1×10^6, respectively) were subcutaneously injected in female SCID mice. Cells were injected in 200 μl DMEM:Matrigel mixture (ratio 1:1) based on preliminary experiments. When tumor reached approximately 100 mm^3 (H358 7 days, SW1573 26 days after injection), animals were randomized and treated intraperitoneally daily except for weekends. Drugs were dissolved in 60% DPBS, 34% PEG300, 5% DMSO and 1% Tween80. […] Controls received vehicle. Doses were determined based on previous literature, roughly using half of the used per os doses. The subcutaneous tumors were measured with a caliper and tumor volumes were calculated with the formula […] and expressed in mm^3. H358 experiment was terminated after 18 days and SW1573 after 25 days treatment. Tumors were measured upon harvest, then fixed with 4% PFA for histological analyses.
(§3) Animals were the properties of the Department of Experimental Pharmacology, National Institute of Oncology, H-1122, Budapest, Hungary. All experiments were carried out in accordance with the Guidelines for Animal Experiments and were approved for the Department of Experimental Pharmacology in the National Institute of Oncology, Budapest, Hungary.

SW1573 xenografts = experiment: In vivo tumor growth of subcutaneous xenografts; set-up: species or system female SCID mice; details: AMG510 25 mg/kg i.p. and/or tipifarnib 40 mg/kg i.p., (day 1 = 1)
Procedure: as §2, §3

[3] = group mean, in g (unit assumed)

C=CC(=O)N1CCN(c2nc(=O)n(-c3c(C)ccnc3C(C)C)c3nc(-c4c(O)cccc4F)c(F)cc23)[C@@H](C)C1 [AMG-510]
viability at 0.01 µM (SW1573 [1]; SW1573, read-out: Viability data (MEAN), SW1573, BPH1222 0 μM + AMG-510 10 nM): 99.5%
viability at 0.025 µM (SW1573 [1]; SW1573, read-out: Viability data (MEAN), SW1573, BPH1222 0 μM + AMG-510 25 nM): 99.8%
viability at 0.05 µM (SW1573 [1]; SW1573, read-out: Viability data (MEAN), SW1573, BPH1222 0 μM + AMG-510 50 nM): 97.7%
viability at 0.01 µM (SW1573 [1]; SW1573, read-out: Viability data (MEAN), SW1573, SIMVASTATIN 0 μM + AMG-510 10 nM): 96.6%
viability at 0.025 µM (SW1573 [1]; SW1573, read-out: Viability data (MEAN), SW1573, SIMVASTATIN 0 μM + AMG-510 25 nM): 92.5%
viability at 0.05 µM (SW1573 [1]; SW1573, read-out: Viability data (MEAN), SW1573, SIMVASTATIN 0 μM + AMG-510 50 nM): 89.9%

C=C(F)C(=O)N1CCN(c2nc(OC[C@@H]3CCCN3C)nc3c2CCN(c2cccc4cccc(Cl)c24)C3)C[C@@H]1CC#N [adagrasib]
viability at 0.025 µM (PF97; read-out: Relative cell viability, 6/A1, 25 nM adagrasib + 0 nM tipifarnib): 58.2%
viability at 0.1 µM (PF97; read-out: Relative cell viability, 6/A1, 100 nM adagrasib + 0 nM tipifarnib): 46.7%
viability at 0.5 µM (PF97; read-out: Relative cell viability, 6/A1, 500 nM adagrasib + 0 nM tipifarnib): 45.9%
viability at 0.01 µM (PF97; read-out: Relative cell viability, 7/A1, 10 nM adagrasib + 0 nM lonafarnib): 52.5%
viability at 0.1 µM (PF97; read-out: Relative cell viability, 7/A1, 100 nM adagrasib + 0 nM lonafarnib): 29.2%
viability at 0.5 µM (PF97; read-out: Relative cell viability, 7/A1, 500 nM adagrasib + 0 nM lonafarnib): 19.4%
viability at 0.01 µM (SW1573 [1]; SW1573, 144 h, read-out: Relative cell viability, 6/A3, SW1573, 10 nM adagrasib + 0 nM tipifarnib, six days): 85.3%
viability at 0.025 µM (SW1573 [1]; SW1573, 144 h, read-out: Relative cell viability, 6/A3, SW1573, 25 nM adagrasib + 0 nM tipifarnib, six days): 77.3%
viability at 0.1 µM (SW1573 [1]; SW1573, 144 h, read-out: Relative cell viability, 6/A3, SW1573, 100 nM adagrasib + 0 nM tipifarnib, six days): 67.2%
viability at 0.01 µM (SW1573 [1]; SW1573, 144 h, read-out: Relative cell viability, 7/A3, SW1573, 10 nM adagrasib + 0 nM lonafarnib, six days): 86.6%
viability at 0.025 µM (SW1573 [1]; SW1573, 144 h, read-out: Relative cell viability, 7/A3, SW1573, 25 nM adagrasib + 0 nM lonafarnib, six days): 79.4%
viability at 0.1 µM (SW1573 [1]; SW1573, 144 h, read-out: Relative cell viability, 7/A3, SW1573, 100 nM adagrasib + 0 nM lonafarnib, six days): 72.5%
viability at 0.025 µM (MIAPACA2; read-out: Relative cell viability, 6/A2, 25 nM adagrasib + 0 nM tipifarnib): 50.4%
viability at 0.05 µM (MIAPACA2; read-out: Relative cell viability, 6/A2, 50 nM adagrasib + 0 nM tipifarnib): 38.3%
viability at 0.1 µM (MIAPACA2; read-out: Relative cell viability, 6/A2, 100 nM adagrasib + 0 nM tipifarnib): 28.9%
viability at 0.025 µM (MIAPACA2; read-out: Relative cell viability, 7/A2, 25 nM adagrasib + 0 nM lonafarnib): 50.8%
viability at 0.05 µM (MIAPACA2; read-out: Relative cell viability, 7/A2, 50 nM adagrasib + 0 nM lonafarnib): 37.5%
viability at 0.1 µM (MIAPACA2; read-out: Relative cell viability, 7/A2, 100 nM adagrasib + 0 nM lonafarnib): 27.3%

NC(=O)N1CCC(CC(=O)N2CCC([C@H]3c4ncc(Br)cc4CCc4cc(Cl)cc(Br)c43)CC2)CC1 [lonafarnib]
viability at 0.2 µM (SW1990; 200 nM lonafarnib + 0 nM MRTX1133): 83.1%
viability at 1 µM (SW1990; 1000 nM lonafarnib + 0 nM MRTX1133): 64.8%
viability at 2 µM (SW1990; 2000 nM lonafarnib + 0 nM MRTX1133): 57.6%
viability at 0.5 µM (SW480; 500 nM lonafarnib + 0 μM BI2852, read-out: Relative cell viability (MEAN)): 72%
viability at 1 µM (SW480; 1000 nM lonafarnib + 0 μM BI2852, read-out: Relative cell viability (MEAN)): 63.9%
viability at 2 µM (SW480; 2000 nM lonafarnib + 0 μM BI2852, read-out: Relative cell viability (MEAN)): 55.7%
Objective responses (cancer patients; colorectal cancer): no objective responses
Progression-free or overall survival (cancer patients; ovarian cancer, in combination with chemotherapy): does not improve

Cn1cncc1[C@@](N)(c1ccc(Cl)cc1)c1ccc2c(c1)c(-c1cccc(Cl)c1)cc(=O)n2C [tipifarnib]
viability at 0.1 µM (SW1990; 100 nM tipifarnib + 0 μM BI2852): 75.6%
viability at 0.1 µM (SW1990; 100 nM tipifarnib + 0 nM MRTX1133): 80.2%
viability at 0.5 µM (SW1990; 500 nM tipifarnib + 0 μM BI2852): 67%
viability at 0.5 µM (SW1990; 500 nM tipifarnib + 0 nM MRTX1133): 70.3%
viability at 1 µM (SW1990; 1000 nM tipifarnib + 0 μM BI2852): 55%
viability at 1 µM (SW1990; 1000 nM tipifarnib + 0 nM MRTX1133): 63.4%
pIC50 (SW1573 [2]; Cont (non-targeting) siRNA): 8.34
pIC50 (SW1573 [2]; HRAS siRNA): 7.98
Weights of the tumors at the end of the experiment (H358 xenografts; animal 1, in g (unit assumed)): 0.182
Weights of the tumors at the end of the experiment (H358 xenografts; animal 2, in g (unit assumed)): 1.599
Weights of the tumors at the end of the experiment (H358 xenografts; animal 3, in g (unit assumed)): 1.023
Weights of the tumors at the end of the experiment (H358 xenografts; animal 4, in g (unit assumed)): 0.223
Weights of the tumors at the end of the experiment (H358 xenografts; animal 5, in g (unit assumed)): 0.225
Weights of the tumors at the end of the experiment (H358 xenografts; animal 6, in g (unit assumed)): 0.205
Weights of the tumors at the end of the experiment (H358 xenografts; animal 7, in g (unit assumed)): 0.239
Weights of the tumors at the end of the experiment, MEAN (H358 xenografts; [3]): 0.528
Weights of the tumors at the end of the experiment (SW1573 xenografts; animal 1, in g (unit assumed)): 0.5323
Weights of the tumors at the end of the experiment (SW1573 xenografts; animal 2, in g (unit assumed)): 0.2277
Weights of the tumors at the end of the experiment (SW1573 xenografts; animal 3, in g (unit assumed)): 0.3143
Weights of the tumors at the end of the experiment (SW1573 xenografts; animal 5, in g (unit assumed)): 0.2239
Weights of the tumors at the end of the experiment (SW1573 xenografts; animal 6, in g (unit assumed)): 0.2604
Weights of the tumors at the end of the experiment (SW1573 xenografts; animal 7, in g (unit assumed)): 1.2243
Weights of the tumors at the end of the experiment, MEAN (SW1573 xenografts; [3]): 0.4638
viability at 0.025 µM (SW1573 [1]; SW1573, read-out: Relative cell viability (MEAN), SW1573, 25 nM tipifarnib + 0 μM BI2852): 41.4%
viability at 0.05 µM (SW1573 [1]; SW1573, read-out: Relative cell viability (MEAN), SW1573, 50 nM tipifarnib + 0 μM BI2852): 35.4%
viability at 0.1 µM (SW1573 [1]; SW1573, read-out: Relative cell viability (MEAN), SW1573, 100 nM tipifarnib + 0 μM BI2852): 29.2%

Source: US20240058321A1, “FARNESYL-TRANSFERASE INHIBITORS AND KRAS INHIBITORS FOR TREATING KRAS MUTANT CANCERS” (SEMMELWEIS EGYETEM, priority 2021, published 2024)
